Data taken from patent publication US10533018B2, “Antimicrobial prochelators to target drug-resistant bacteria and methods of making and using the same” (Duke University, priority 2015, dated 2020).

Key:
UTI89 E. coli = experiment: Broth microdilution growth inhibition (OD600); type: cell-based, Escherichia coli; settings: UTI89 E. coli
Description: Bacterial culture reagents including LB broth (Lennox), agar-agar, ampicillin, and ceftriaxone were purchased from Sigma Aldrich Corp. The Escherichia coli (E. coli) K12 strain HB101 and pGLO E. coli transformation kit purchased from Bio-Rad Laboratories Inc. HB101 was transformed with the bla gene via the pGLO plasmid. The bla gene encodes for a TEM-1 β-lactamase that imparts penicillin resistance to the mutant E. coli K-12 strain (+Bla). Strains E. coli UTI89, [27] pCOM-GFP-transformed E. coli UTI89 (pCOM-GFP), [28] and Methicillin-Resistant Staphylococcus aureus (MRSA) clone USA300 [29] have been previously described. The Extended-Spectrum β-Lactamase (ESBL) E. coli, Klebsiella pneumonia (Klebs), and Pseudomonas aeruginosa (Pseudo) strains were clinical isolates acquired deidentified from Duke Hospital and tested for antibiotic susceptibility in the Clinical Microbiology Laboratory using standard clinical susceptibility methods.
Cultures were incubated on LB (Lennox, Sigma) agar at 37° C. in ambient atmospheric composition. Before beginning an experiment, a single bacterial colony grown on LB agar was resuspended in 2 mL LB broth and incubated overnight to form a turbid cell suspension. The overnight culture was diluted 1:100 in LB and used immediately as the working culture. To assess the antibacterial activity of compounds, the working bacterial culture was aliquoted in a clear, flat-bottomed, 96-well polystyrene plate (Costar) and the compound of interest was added in 2-fold serial dilution from 500 to 1 μM. Plates were covered with a breathable sealing film (Aeroseal, Genesee Scientific) and incubated at 37° C. in ambient atmospheric composition with shaking at 200 rpm. Optical density at 600 nm was recorded after 4 h and 20 h for each well using a standard OD600 protocol with LB serving as the blank. The resulting dose-response curves were fit to a nonlinear regression in GraphPad Prism Version 6 to calculate the IC50 of DB4-51 in each strain.
The ability of DB4-162 to inhibit bacterial growth was assessed by a traditional broth microdilution method that assesses the turbidity of liquid cultures in the presence of varying concentrations of the compound. As described above for DB4-51, the antibacterial properties of the prochelator DB4-162 were assessed in non-pathogenic lab-strain HB101K-12 E. coli and compared to the pGLO-transfected mutant HB101K-12 E. coli that express β-lactamase. Clinically relevant pathogenic bacteria were also screened, including UTI89 E. coli, pCOM transfected UTI89 E. coli (pCOM), extended spectrum β-lactamase (ESBL) E. coli, methicillin-resistant Staphylococcus aureus (MRSA), and Klebsiella pneumonia (Klebs). In addition to being naturally resistant to many β-lactam antibiotics, MRSA can produce a number of β-lactamases. […] It should be noted that all of the bacteria tested are gram-negative except for gram-positive MRSA.
The goal of this screen was to calculate the IC50 of the prochelator in a series of pathogenic bacteria and compare these values to the IC50 of known antibiotics in those same strains to determine the relative effectiveness of DB4-162 against the drug-resistant and drug-susceptible bacteria in comparison to current antibiotic treatment options. Bacterial growth was monitored in LB broth at 37° C. in the presence and absence of DB4-162 for 20 hours. A concentration gradient of DB4-162 from 500 to 0 μM was used to screen all 7 strains of bacteria and the dose-response curves were fit to a […] to calculate the IC50 of DB4-162 in each strain. These IC50 values are an approximation of how effectively DB4-162 inhibits the growth of each bacterial strain in vitro.
IC50 values for ampicillin were calculated via broth microdilution in LB broth only. Values are listed as the mean followed by the 95% confidence interval about the mean. Mean and confidence intervals were calculated from a variable slope, nonlinear regression fit to the dose-response OD600 data. […]

[1] = Calcein fluorescence assay for Cu competition; type: physicochemical
Protocol: FIG. 11: To solutions of 2 μM calcein in pH 7.4 PBS was added 2.4 μM CuCl2 and the samples were fully equilibrated at room temperature for 2 hours. Next, 20 μM TAT, 20 μM DB4-162, 0.1 units/mL β-lactamase were added and the fluorescence at 500 nm was recorded after one hour.
A calcein fluorescence assay for metal competition was utilized in order to evaluate the relative metal-binding affinity of DB4-51 compared to PT. The fluorescence intensity of the probe calcein is quenched by more than 90% upon binding Cu^2+. […] However, when incubated with 10 equivalents of DB4-51 and 0.1 units/mL Type III β-lactamase from Enterobacter cloacae, there is an 85% return in calcein fluorescence, which correlates well with the 90% return observed for PT itself at the same concentration.
FIG. 4: Relative Cu binding assay with DB4-51 and PT against calcein. Solutions of 2 μM calcein and 2.4 μM CuCl2 in pH 7.4 PBS were equilibrated at room temperature for 2 hours prior to addition of 20 μM PT, 20 μM DB4-51, and/or 0.1 units/mL β-lactamase (Bla).
The calcein assay was utilized in order to assess the relative copper chelating ability of the prochelator and TAT. The fluorescence emission of calcein is quenched by more than 90% in the presence of 1.2 equivalents of CuCl2 (FIG. 11). […] The addition of 0.1 units/mL β-lactamase alone has no effect on the quenched fluorescence signal of the Cu-calcein solution. […] However, when incubated with 10 equivalents of DB4-162 and 0.1 units/mL β-lactamase there is a 90% return in calcein fluorescence. […] While it is unclear why 10 equivalents of TAT are insufficient to out-compete calcein for copper, it may be related to the propensity of TAT to form other species in aqueous media.

[2] = Escherichia coli, LB + 10 μM CuCl2
[3] = Escherichia coli, LB + 500 μM BCS
[4] = 2 μM calcein + 2.4 μM CuCl2, pH 7.4 PBS, 20 μM (10 equivalents) compound alone, 1 h
[5] = as above, 10 equivalents compound + 0.1 units/mL β-lactamase

Compound | IC50 (UTI89 E. coli; [2]) | IC50 (UTI89 E. coli; [3]) | IC50 (UTI89 E. coli; Escherichia coli, LB broth) | return in calcein fluorescence [1, 4] | return in calcein fluorescence [1, 5] | IC50 (UTI89 E. coli; LB broth) | IC50 (UTI89 E. coli; LB broth, listed as ampicillin)
Cc1csc(=S)n1OCC1=C(C(=O)O)N2C(=O)[C@@H](NC(=O)Cc3ccccc3)[C@H]2SC1 [DB4-162, (6R,7R)-3-(((4-methyl-2-thioxothiazol-3(2H)-yl)oxy)methyl)-8-oxo-7-(2-phenylacetamido)-5-thia-1-azabicyclo[4.2.0]oct-2-ene-2-carboxylic acid] | 97000 nM | 77000 nM | 93000 nM | approximately 50% | 90% |  | 
[O-][n+]1ccccc1S [PT, 2-mercaptopyridine N-oxide] | 4 nM | 6 nM | 2 nM | 90% |  |  | 
CC1(C)S[C@@H]2[C@H](NC(=O)[C@H](N)c3ccccc3)C(=O)N2[C@H]1C(=O)O [Ampicillin] |  |  |  |  |  | 3 nM | 3000 nM
O=C(Cc1ccccc1)N[C@@H]1C(=O)N2C(C(=O)O)=C(CSc3cccc[n+]3[O-])CS[C@H]12 [DB4-51, 2-((((6R,7R)-2-carboxy-8-oxo-7-(2-phenylacetamido)-5-thia-1-azabicyclo[4.2.0]oct-2-en-3-yl)methyl)thio)pyridine 1-oxide] | 21 nM | 17 nM |  | does not compete with calcein for Cu binding | 85% |  | 
